In patent publication US20250186437A1, “CARBOLINE COMPOUNDS AND USE THEREOF” (PTC Therapeutics, Inc., priority 2021, published 2025):

Test system: MOLM-13 cells
Test: MOLM-13 Cell Proliferation Assay (indicator of DHODH inhibition)
Format: cell-based
Settings: Homo sapiens, 72 Hours of culture, CellTiter-Glo, no uridine
Outline: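 Proliferation readout via CellTiter-Glo luminescence after 72 h compound treatment (37 °C, 5% CO2, 0.5% DMSO) of MOLM-13 cells seeded at 10^4 per well in RPMI 1640/10% FBS, used as a DHODH-inhibition indicator since these cells rely on de novo pyrimidine synthesis.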

Row | SMILES | IC50 [nM]
1 | Cc1ccc([C@H]2c3[nH]c4ccc(Cl)cc4c3CCN2c2nc(C(F)(F)F)nc(C(F)(F)F)n2)cc1 [Compound 386, (1S)-2-[4,6-bis(trifluoromethyl)-1,3,5-triazin-2-yl]-6-chloro-1-(4-methylphenyl)-2,3,4,9-tetrahydro-1H-pyrido[3,4-b]indole] | 0.3
2 | CSc1nc(N2CCc3c([nH]c4ccc(Cl)cc34)[C@@H]2c2ccc(C)c(F)c2F)nc(C(F)(F)F)n1 [Compound 389, (1S)-6-chloro-1-(2,3-difluoro-4-methylphenyl)-2-[4-(methylsulfanyl)-6-(trifluoromethyl)-1,3,5-triazin-2-yl]-2,3,4,9-tetrahydro-1H-pyrido[3,4-b]indole] | 0.8
3 | Cc1ccc([C@H]2c3[nH]c4ccc(Cl)cc4c3CCN2c2nc(C#N)nc(C(F)(F)F)n2)c(F)c1F [Compound 390, 4-[(1S)-6-chloro-1-(2,3-difluoro-4-methylphenyl)-1,3,4,9-tetrahydro-2H-pyrido[3,4-b]indol-2-yl]-6-(trifluoromethyl)-1,3,5-triazine-2-carbonitrile] | 3.5
4 | FC(F)(F)c1ccnc(N2CCc3c([nH]c4ccc(Cl)cc34)C2c2cnc(N3CC4(COC4)C3)nc2)n1 (stereo not drawn) [Compound 391, 6-chloro-1-[2-(2-oxa-6-azaspiro[3.3]heptan-6-yl)pyrimidin-5-yl]-2-[4-(trifluoromethyl)pyrimidin-2-yl]-2,3,4,9-tetrahydro-1H-pyrido[3,4-b]indole] | 5.7
5 | Cc1ccc([C@H]2c3[nH]c4ccc(Cl)cc4c3CCN2c2ncc(F)c(C#N)n2)cc1 [Compound 392, 2-[(1S)-6-chloro-1-(4-methylphenyl)-1,3,4,9-tetrahydro-2H-pyrido[3,4-b]indol-2-yl]-5-fluoropyrimidine-4-carbonitrile] | 3.1
6 | Cc1ccc([C@H]2c3[nH]c4ccc(Cl)cc4c3CCN2c2ncc(F)cn2)cc1 [Compound 393, (1S)-6-chloro-2-(5-fluoropyrimidin-2-yl)-1-(4-methylphenyl)-2,3,4,9-tetrahydro-1H-pyrido[3,4-b]indole] | 12.7
7 | Cc1ccc([C@H]2c3[nH]c4ccc(Cl)cc4c3CCN2c2ncc(F)c(C)n2)cc1 [Compound 394, (1S)-6-chloro-2-(5-fluoro-4-methylpyrimidin-2-yl)-1-(4-methylphenyl)-2,3,4,9-tetrahydro-1H-pyrido[3,4-b]indole] | 4.9
8 | Cc1ccc([C@H]2c3[nH]c4ccc(Cl)cc4c3CCN2c2nc(C)c(F)c(C)n2)cc1 [Compound 395, (1S)-6-chloro-2-(5-fluoro-4,6-dimethylpyrimidin-2-yl)-1-(4-methylphenyl)-2,3,4,9-tetrahydro-1H-pyrido[3,4-b]indole] | 4.4
9 | N#Cc1nc(N2CCc3c([nH]c4ccc(Cl)cc34)[C@@H]2c2cnc(N3CCOCC3)nc2)ncc1F [Compound 396, 2-{(1S)-6-chloro-1-[2-(morpholin-4-yl)pyrimidin-5-yl]-1,3,4,9-tetrahydro-2H-pyrido[3,4-b]indol-2-yl}-5-fluoropyrimidine-4-carbonitrile] | 2.4
10 | Cc1ccc([C@H]2c3[nH]c4ccc(Cl)cc4c3CCN2c2nc(C#N)cc(C#N)n2)cc1 [Compound 397, 2-[(1S)-6-chloro-1-(4-methylphenyl)-1,3,4,9-tetrahydro-2H-pyrido[3,4-b]indol-2-yl]pyrimidine-4,6-dicarbonitrile] | 2.4
11 | Cc1ccc([C@H]2c3[nH]c4ccc(Cl)cc4c3CCN2c2ncnc(C#N)n2)cc1 [Compound 399, 4-[(1S)-6-chloro-1-(4-methylphenyl)-1,3,4,9-tetrahydro-2H-pyrido[3,4-b]indol-2-yl]-1,3,5-triazine-2-carbonitrile] | 11.2
12 | N#Cc1nc(N2CCc3c([nH]c4ccc(Cl)cc34)[C@@H]2c2ccc(N3CCOCC3)nc2)ncc1F [Compound 400, 2-{(1S)-6-chloro-1-[6-(morpholin-4-yl)pyridin-3-yl]-1,3,4,9-tetrahydro-2H-pyrido[3,4-b]indol-2-yl}-5-fluoropyrimidine-4-carbonitrile] | 2.3
13 | Cc1ccc(C2c3[nH]c4ccc(Cl)cc4c3CCN2c2ncc(F)cn2)c(F)c1F (stereo not drawn) [Compound 401, 6-chloro-1-(2,3-difluoro-4-methylphenyl)-2-(5-fluoropyrimidin-2-yl)-2,3,4,9-tetrahydro-1H-pyrido[3,4-b]indole] | 3.2
14 | Cc1ccc([C@H]2c3[nH]c4ccc(Cl)cc4c3CCN2c2nc(C)nc(C)n2)cc1 [Compound 402, (1S)-6-chloro-2-(4,6-dimethyl-1,3,5-triazin-2-yl)-1-(4-methylphenyl)-2,3,4,9-tetrahydro-1H-pyrido[3,4-b]indole] | 4.7
15 | Cc1ccc(C2c3[nH]c4ccc(Cl)cc4c3CCN2c2nncc(C(F)(F)F)n2)c(F)c1F (stereo not drawn) [Compound 403, 6-chloro-1-(2,3-difluoro-4-methylphenyl)-2-[5-(trifluoromethyl)-1,2,4-triazin-3-yl]-2,3,4,9-tetrahydro-1H-pyrido[3,4-b]indole] | 0.7
16 | FC(F)(F)c1nc(N2CCc3c([nH]c4ccc(Cl)cc34)C2c2ccc(N3CCOCC3)nc2)nc(C(F)(F)F)n1 (stereo not drawn) [Compound 404, 2-[4,6-bis(trifluoromethyl)-1,3,5-triazin-2-yl]-6-chloro-1-[6-(morpholin-4-yl)pyridin-3-yl]-2,3,4,9-tetrahydro-1H-pyrido[3,4-b]indole] | 0.4
17 | Cc1ccc([C@H]2c3[nH]c4ccc(Cl)cc4c3CCN2c2nc(C)nc(C#N)n2)cc1 [Compound 411, 4-[(1S)-6-chloro-1-(4-methylphenyl)-1,3,4,9-tetrahydro-2H-pyrido[3,4-b]indol-2-yl]-6-methyl-1,3,5-triazine-2-carbonitrile] | 3.7
18 | Cc1ccc([C@H]2c3[nH]c4ccc(Cl)cc4c3CCN2c2nc(C)c(F)c(C)n2)c(F)c1F [Compound 412, (1S)-6-chloro-1-(2,3-difluoro-4-methylphenyl)-2-(5-fluoro-4,6-dimethylpyrimidin-2-yl)-2,3,4,9-tetrahydro-1H-pyrido[3,4-b]indole] | 1
19 | Cc1ccc([C@H]2c3[nH]c4ccc(Cl)cc4c3CCN2c2nc(C)c(F)c(C#N)n2)c(F)c1F [Compound 413, 2-[(1S)-6-chloro-1-(2,3-difluoro-4-methylphenyl)-1,3,4,9-tetrahydro-2H-pyrido[3,4-b]indol-2-yl]-5-fluoro-6-methylpyrimidine-4-carbonitrile] | 0.8
20 | N#Cc1ncnc(N2CCc3c([nH]c4ccc(Cl)cc34)[C@@H]2c2cnc(N3CCOCC3)nc2)n1 [Compound 414, 4-{(1S)-6-chloro-1-[2-(morpholin-4-yl)pyrimidin-5-yl]-1,3,4,9-tetrahydro-2H-pyrido[3,4-b]indol-2-yl}-1,3,5-triazine-2-carbonitrile] | 38
21 | Cc1nc(C#N)nc(N2CCc3c([nH]c4ccc(Cl)cc34)[C@@H]2c2cnc(N3CCOCC3)nc2)n1 [Compound 415, 4-{(1S)-6-chloro-1-[2-(morpholin-4-yl)pyrimidin-5-yl]-1,3,4,9-tetrahydro-2H-pyrido[3,4-b]indol-2-yl}-6-methyl-1,3,5-triazine-2-carbonitrile] | 50.6
22 | Cc1ccc([C@H]2c3[nH]c4ccc(Cl)cc4c3CCN2c2nc(C#N)cc(C(F)(F)F)n2)c(F)c1F [Compound 416, 2-[(1S)-6-chloro-1-(2,3-difluoro-4-methylphenyl)-1,3,4,9-tetrahydro-2H-pyrido[3,4-b]indol-2-yl]-6-(trifluoromethyl)pyrimidine-4-carbonitrile] | 2.7
23 | Cc1ccc([C@H]2c3[nH]c4ccc(Cl)cc4c3CCN2c2nc(C)c(F)c(C#N)n2)cc1 [Compound 417, 2-[(1S)-6-chloro-1-(4-methylphenyl)-1,3,4,9-tetrahydro-2H-pyrido[3,4-b]indol-2-yl]-5-fluoro-6-methylpyrimidine-4-carbonitrile] | 1.9
24 | Cc1nc(N2CCc3c([nH]c4ccc(Cl)cc34)[C@@H]2c2cnc(N3CCOCC3)nc2)nc(C#N)c1F [Compound 421, 2-{(1S)-6-chloro-1-[2-(morpholin-4-yl)pyrimidin-5-yl]-1,3,4,9-tetrahydro-2H-pyrido[3,4-b]indol-2-yl}-5-fluoro-6-methylpyrimidine-4-carbonitrile] | 1.7
25 | Fc1ccc(C2c3[nH]c4ccc(Cl)cc4c3CCN2c2nccc(C(F)(F)F)n2)cc1 (stereo not drawn) [Compound 422, 6-chloro-1-(4-fluorophenyl)-2-[4-(trifluoromethyl)pyrimidin-2-yl]-2,3,4,9-tetrahydro-1H-pyrido[3,4-b]indole] | 7.1
26 | Fc1ccc(C2c3[nH]c4ccc(Cl)cc4c3CCN2c2nccc(C(F)(F)F)n2)c(F)c1 (stereo not drawn) [Compound 423, 6-chloro-1-(2,4-difluorophenyl)-2-[4-(trifluoromethyl)pyrimidin-2-yl]-2,3,4,9-tetrahydro-1H-pyrido[3,4-b]indole] | 6.1
27 | Cc1nc(N2CCc3c([nH]c4ccc(Cl)cc34)[C@@H]2c2ccc(N3CCOCC3)nc2)nc(C#N)c1F [Compound 424, 2-{(1S)-6-chloro-1-[6-(morpholin-4-yl)pyridin-3-yl]-1,3,4,9-tetrahydro-2H-pyrido[3,4-b]indol-2-yl}-5-fluoro-6-methylpyrimidine-4-carbonitrile] | 2
28 | Cc1ccc([C@H]2c3[nH]c4ccc(Cl)cc4c3CCN2c2nc(C#N)cc(C(F)(F)F)n2)cc1 [Compound 425, 2-[(1S)-6-chloro-1-(4-methylphenyl)-1,3,4,9-tetrahydro-2H-pyrido[3,4-b]indol-2-yl]-6-(trifluoromethyl)pyrimidine-4-carbonitrile] | 1.2
29 | Cc1ccc([C@H]2c3[nH]c4ccc(Cl)cc4c3CCN2c2nc(N)nc(C(F)(F)F)n2)cc1 [Compound 426, 4-[(1S)-6-chloro-1-(4-methylphenyl)-1,3,4,9-tetrahydro-2H-pyrido[3,4-b]indol-2-yl]-6-(trifluoromethyl)-1,3,5-triazin-2-amine] | 65
30 | FC(F)(F)c1nc(N2CCOCC2)nc(N2CCc3c([nH]c4ccc(Cl)cc34)C2c2ccc(N3CCOCC3)nc2)n1 (stereo not drawn) [Compound 428, 6-chloro-1-[6-(morpholin-4-yl)pyridin-3-yl]-2-[4-(morpholin-4-yl)-6-(trifluoromethyl)-1,3,5-triazin-2-yl]-2,3,4,9-tetrahydro-1H-pyrido[3,4-b]indole] | 5.2
